{
  "source": "paper PMC4894402",
  "about": "“Characterization of the honeybee AmNaV1 channel and tools to assess the toxicity of insecticides” (Scientific Reports, 2015)",
  "target": "T1, AmNaV1 (Apis mellifera NaV1 voltage-gated sodium channel) (Apis mellifera, UniProt C9D7C5)",
  "T1 construct": "gene PARA; AmNaV1 channel expressed in Xenopus oocytes; with TipE regulatory subunit (honeybee)",
  "T1 sequence (C9D7C5 1-2044)": "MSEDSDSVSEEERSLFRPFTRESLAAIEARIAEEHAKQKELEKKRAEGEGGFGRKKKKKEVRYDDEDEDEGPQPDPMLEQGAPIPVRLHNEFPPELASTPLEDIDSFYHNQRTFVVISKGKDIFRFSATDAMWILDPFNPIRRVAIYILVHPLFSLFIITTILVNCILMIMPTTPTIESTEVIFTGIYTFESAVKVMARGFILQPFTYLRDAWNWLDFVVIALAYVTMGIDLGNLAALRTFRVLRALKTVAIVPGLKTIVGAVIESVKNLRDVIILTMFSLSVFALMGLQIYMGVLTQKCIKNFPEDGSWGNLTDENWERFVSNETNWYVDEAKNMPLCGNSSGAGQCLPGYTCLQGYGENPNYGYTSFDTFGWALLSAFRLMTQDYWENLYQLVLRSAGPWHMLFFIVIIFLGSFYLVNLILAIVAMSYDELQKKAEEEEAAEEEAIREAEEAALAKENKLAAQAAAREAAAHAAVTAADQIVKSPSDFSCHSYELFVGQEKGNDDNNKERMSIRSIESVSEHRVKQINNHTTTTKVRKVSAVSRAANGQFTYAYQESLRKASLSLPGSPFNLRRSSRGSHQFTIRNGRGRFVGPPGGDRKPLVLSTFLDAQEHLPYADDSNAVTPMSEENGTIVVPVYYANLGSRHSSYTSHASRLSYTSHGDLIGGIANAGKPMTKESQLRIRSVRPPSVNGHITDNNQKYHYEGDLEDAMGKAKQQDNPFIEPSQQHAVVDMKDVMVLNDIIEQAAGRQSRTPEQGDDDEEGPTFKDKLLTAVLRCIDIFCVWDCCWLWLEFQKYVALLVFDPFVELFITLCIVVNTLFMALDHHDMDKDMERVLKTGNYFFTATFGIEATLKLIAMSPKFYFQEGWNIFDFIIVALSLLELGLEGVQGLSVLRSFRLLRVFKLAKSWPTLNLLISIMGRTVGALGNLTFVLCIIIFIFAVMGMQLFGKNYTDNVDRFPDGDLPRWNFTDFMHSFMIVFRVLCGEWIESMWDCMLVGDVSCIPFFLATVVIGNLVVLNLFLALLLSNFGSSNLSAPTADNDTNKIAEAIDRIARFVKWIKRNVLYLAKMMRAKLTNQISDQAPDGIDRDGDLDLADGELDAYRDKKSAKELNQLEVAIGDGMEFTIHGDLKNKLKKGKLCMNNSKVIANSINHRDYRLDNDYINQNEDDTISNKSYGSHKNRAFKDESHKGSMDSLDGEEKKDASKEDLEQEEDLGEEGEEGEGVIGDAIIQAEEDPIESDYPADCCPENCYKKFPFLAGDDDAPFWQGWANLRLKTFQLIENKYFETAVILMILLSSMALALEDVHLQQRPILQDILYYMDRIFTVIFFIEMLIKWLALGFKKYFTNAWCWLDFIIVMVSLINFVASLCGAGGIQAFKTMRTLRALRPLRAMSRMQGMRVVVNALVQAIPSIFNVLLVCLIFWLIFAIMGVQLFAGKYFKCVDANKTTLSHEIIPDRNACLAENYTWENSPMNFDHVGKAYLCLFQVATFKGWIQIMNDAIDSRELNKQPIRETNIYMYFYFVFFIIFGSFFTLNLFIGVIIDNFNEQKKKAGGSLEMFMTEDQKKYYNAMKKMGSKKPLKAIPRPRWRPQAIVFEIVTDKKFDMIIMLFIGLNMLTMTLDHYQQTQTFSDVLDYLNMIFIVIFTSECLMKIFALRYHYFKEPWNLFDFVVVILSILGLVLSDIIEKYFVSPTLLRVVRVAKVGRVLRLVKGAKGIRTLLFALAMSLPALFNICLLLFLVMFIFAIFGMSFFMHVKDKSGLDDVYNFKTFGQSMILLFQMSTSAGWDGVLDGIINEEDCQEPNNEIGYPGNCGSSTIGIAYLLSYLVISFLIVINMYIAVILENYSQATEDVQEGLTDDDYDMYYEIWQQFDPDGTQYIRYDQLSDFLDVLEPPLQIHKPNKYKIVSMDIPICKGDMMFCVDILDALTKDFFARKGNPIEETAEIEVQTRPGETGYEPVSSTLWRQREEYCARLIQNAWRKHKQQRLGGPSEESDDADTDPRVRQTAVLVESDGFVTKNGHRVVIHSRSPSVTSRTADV",
  "T1 sequence (A0A120HXK1 1-238 partner)": "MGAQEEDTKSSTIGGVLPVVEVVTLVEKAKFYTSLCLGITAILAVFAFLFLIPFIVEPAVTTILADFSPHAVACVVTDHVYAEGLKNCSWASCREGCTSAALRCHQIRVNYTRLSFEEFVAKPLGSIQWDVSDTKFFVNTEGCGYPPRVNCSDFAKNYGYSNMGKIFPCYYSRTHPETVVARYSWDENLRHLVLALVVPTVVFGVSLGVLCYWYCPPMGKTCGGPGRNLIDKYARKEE",
  "test": "two-microelectrode voltage-clamp in Xenopus oocytes, tail current dose-response",
  "type": "cell-based",
  "data": [
    {"smiles": "CC(C)C(C(=O)OC(C#N)c1cccc(Oc2ccccc2)c1)c1ccc(Cl)cc1", "note": "(stereo not shown) [fenvalerate]", "values": [
      {"measurement": "EC50", "value": 290, "unit": "nM"}
    ]}
  ]
}
